Experimental data as given in PMC7317212 (Chemmedchem, 2020).
pIC50: −log10 of the molar value.

Assays:
mGAT3 = biological target: T1, mGAT3 (Mus musculus, UniProt P31649); test: [^3H]GABA uptake assay, HEK293 cells expressing mGAT3; type: cell-based; conditions: [^3H]GABA uptake; pIC50±SEM
T1 construct: expressed in transfected cells; host or cells: HEK293
T1 sequence (P31649 1-602): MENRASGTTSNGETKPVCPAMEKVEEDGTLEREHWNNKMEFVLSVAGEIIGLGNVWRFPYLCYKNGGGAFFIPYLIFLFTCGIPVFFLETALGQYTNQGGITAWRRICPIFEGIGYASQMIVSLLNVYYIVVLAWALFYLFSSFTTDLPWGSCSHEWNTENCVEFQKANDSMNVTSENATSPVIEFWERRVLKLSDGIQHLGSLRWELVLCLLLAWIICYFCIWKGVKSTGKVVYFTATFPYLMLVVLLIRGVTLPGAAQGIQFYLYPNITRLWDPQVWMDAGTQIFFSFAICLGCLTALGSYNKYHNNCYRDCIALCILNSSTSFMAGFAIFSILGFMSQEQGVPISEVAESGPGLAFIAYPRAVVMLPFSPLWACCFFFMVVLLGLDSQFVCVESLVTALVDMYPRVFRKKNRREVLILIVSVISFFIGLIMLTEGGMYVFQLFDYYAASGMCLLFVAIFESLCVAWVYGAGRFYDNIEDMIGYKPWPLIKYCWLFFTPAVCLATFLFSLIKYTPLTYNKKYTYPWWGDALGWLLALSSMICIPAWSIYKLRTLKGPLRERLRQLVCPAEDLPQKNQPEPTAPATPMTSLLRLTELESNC
In short: (§1)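 HEK293 cells expressing mouse GATs preincubated 25 min at 37 °C with compound in Krebs buffer pH 7.2, then [3H]GABA added: 8 nM plus 32 nM unlabeled for 4 min (mGAT1/3/4), 20 nM plus 20 nM for 10 min (mGAT2). Filtration, scintillation counting; nonspecific uptake with 10 mM (mGAT1/3/4) or 100 mM GABA (mGAT2); pIC50.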

mGAT2 = biological target: T2, mGAT2 (Mus musculus, UniProt P31651); test: [^3H]GABA uptake assay, HEK293 cells expressing mGAT2; type: cell-based; conditions: HEK293; in presence of 100 μM compound
T2 construct: expressed in transfected cells; host or cells: HEK293
T2 sequence (P31651 1-614): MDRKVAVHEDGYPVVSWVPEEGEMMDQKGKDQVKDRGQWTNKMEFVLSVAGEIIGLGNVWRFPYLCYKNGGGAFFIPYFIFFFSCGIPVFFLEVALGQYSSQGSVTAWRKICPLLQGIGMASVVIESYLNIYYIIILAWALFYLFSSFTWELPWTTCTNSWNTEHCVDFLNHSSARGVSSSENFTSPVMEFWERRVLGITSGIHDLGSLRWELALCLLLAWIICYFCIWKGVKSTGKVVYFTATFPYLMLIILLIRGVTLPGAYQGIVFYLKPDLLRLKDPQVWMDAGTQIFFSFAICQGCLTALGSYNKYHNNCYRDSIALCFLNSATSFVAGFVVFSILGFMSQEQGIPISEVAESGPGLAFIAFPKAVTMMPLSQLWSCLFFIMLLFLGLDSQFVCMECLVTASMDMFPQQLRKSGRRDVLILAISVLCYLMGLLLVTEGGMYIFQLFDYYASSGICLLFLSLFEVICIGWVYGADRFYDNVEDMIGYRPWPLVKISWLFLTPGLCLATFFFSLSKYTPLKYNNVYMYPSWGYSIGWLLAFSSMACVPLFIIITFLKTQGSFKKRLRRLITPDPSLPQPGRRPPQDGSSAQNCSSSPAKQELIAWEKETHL
In short: as §1

`COc1ccc(C(OCCN2CCCC(C(=O)O)C2)(c2ccc(C=O)cc2)c2ccc(OC)cc2)cc1` (racemic) [5 a, rac‐ 1‐{2‐[(4‐Formylphenyl)bis(4‐methoxyphenyl)methoxy]ethyl}piper‐idine‐3‐carboxylic acid] showed a pIC50 (mGAT3) of 4.98 and a remaining activity at 100 µM (mGAT2) of 66.3%.
